Experimental findings from patent US9051311B2, “Sulfamide sodium channel inhibitors” (AMGEN INC., priority 2012, dated 2015) are described below.

Counter-ions that a name gives are not always drawn.

The target in assay [1] is T1, Nav 1.7 (Homo sapiens (Human), UniProt Q15858). Put plainly: Nav 1.7 IonWorks Quattro (IWQ) in vitro assay, population patch-clamp.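 Also: cells held at −110 mV for 3 s, then 26 pulses of 150 ms at 5 Hz, leak-corrected peak current, percent block measured before and after compound, 3–8 min exposure.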 It is filed as cell-based. The note with it: 293 cells stably transfected with Nav 1.7; block at 26th pulse to −20 mV. Background: Patch clamp records ionic current or voltage across a cell membrane.
Description: (§1) Nav 1.7 and Nav 1.5 Ion Works Quattro (IWQ) In Vitro Assays
(§2) 293 cells stably transfected with either Nav 1.7 or with Nav 1.5 were recorded in population patch-clamp mode with the IonWorks® Quattro automated electrophysiology system in accordance with the manufacturer's specifications (Molecular Devices, LLC, Sunnyvale, Calif.). Sodium channel currents were measured in response to a train of depolarizations that induced successively greater inactivation.
(§3) Cells were held at −110 mV for three seconds (Nav 1.7) or half a second (Nav 1.5) from a holding voltage of −15 mV, then put through a series of 26 pulses of 150 msec duration to −20 mV at a frequency of 5 Hz. Cells were then left unclamped for a period of 3 to 8 minutes while a single concentration of test compound was added. Cells were then reclamped and put through the same voltage protocol. Current at the end of the 26th pulse to −20 mV was subtracted from the peak current evoked by the 26th pulse to −20 mV to correct for leak current. Percent block was calculated for each concentration in duplicate, and IC50 curves were fitted to percent block as a function of concentration.
Assay [2] has as its target T1, Nav 1.7. The assay can be described thus: Nav 1.7 in vitro PatchExpress (PX) assay, whole cell voltage clamp. It is filed as cell-based. The conditions noted are these: 293 cells stably transfected with human Nav1.7; partially inactivated state (20 to 50% inactivation). How it is done: Nav 1.7 In Vitro PatchExpress (PX) Assay
293 cells stably transfected with human Nav1.7 were recorded in whole cell voltage clamp mode with the PatchXpress automated electrophysiology system (Molecular Devices, LLC, Sunnyvale, Calif.). Compound effects were measured on a partially inactivated state of the sodium channel. Cells were clamped to a holding potential yielding 20 to 50% inactivation. To elicit sodium current, channels were activated by pulsing to −10 mV for 20 msec. This voltage protocol was repeated at a rate of 0.1 Hz throughout the experiment. A single concentration of test compound was applied to cells for a duration of 3 minutes. Peak sodium current was measured at the end of the compound addition period to determine percent inhibition.

A further assay concerns the target Nav 1.5 (Homo sapiens (Human), UniProt Q14524). The assay can be described thus: cell-based.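 Also: HEK293 cells stably expressing Nav1.5, sodium current at the 26th of 26 pulses to −20 mV (150 ms, 5 Hz) after compound versus before, leak-corrected, 3–8 min exposure.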

By IC50 is commonly meant the concentration that gives 50% inhibition. A low value points to greater potency in that assay.

T1 sequence (Q15858 whole entry): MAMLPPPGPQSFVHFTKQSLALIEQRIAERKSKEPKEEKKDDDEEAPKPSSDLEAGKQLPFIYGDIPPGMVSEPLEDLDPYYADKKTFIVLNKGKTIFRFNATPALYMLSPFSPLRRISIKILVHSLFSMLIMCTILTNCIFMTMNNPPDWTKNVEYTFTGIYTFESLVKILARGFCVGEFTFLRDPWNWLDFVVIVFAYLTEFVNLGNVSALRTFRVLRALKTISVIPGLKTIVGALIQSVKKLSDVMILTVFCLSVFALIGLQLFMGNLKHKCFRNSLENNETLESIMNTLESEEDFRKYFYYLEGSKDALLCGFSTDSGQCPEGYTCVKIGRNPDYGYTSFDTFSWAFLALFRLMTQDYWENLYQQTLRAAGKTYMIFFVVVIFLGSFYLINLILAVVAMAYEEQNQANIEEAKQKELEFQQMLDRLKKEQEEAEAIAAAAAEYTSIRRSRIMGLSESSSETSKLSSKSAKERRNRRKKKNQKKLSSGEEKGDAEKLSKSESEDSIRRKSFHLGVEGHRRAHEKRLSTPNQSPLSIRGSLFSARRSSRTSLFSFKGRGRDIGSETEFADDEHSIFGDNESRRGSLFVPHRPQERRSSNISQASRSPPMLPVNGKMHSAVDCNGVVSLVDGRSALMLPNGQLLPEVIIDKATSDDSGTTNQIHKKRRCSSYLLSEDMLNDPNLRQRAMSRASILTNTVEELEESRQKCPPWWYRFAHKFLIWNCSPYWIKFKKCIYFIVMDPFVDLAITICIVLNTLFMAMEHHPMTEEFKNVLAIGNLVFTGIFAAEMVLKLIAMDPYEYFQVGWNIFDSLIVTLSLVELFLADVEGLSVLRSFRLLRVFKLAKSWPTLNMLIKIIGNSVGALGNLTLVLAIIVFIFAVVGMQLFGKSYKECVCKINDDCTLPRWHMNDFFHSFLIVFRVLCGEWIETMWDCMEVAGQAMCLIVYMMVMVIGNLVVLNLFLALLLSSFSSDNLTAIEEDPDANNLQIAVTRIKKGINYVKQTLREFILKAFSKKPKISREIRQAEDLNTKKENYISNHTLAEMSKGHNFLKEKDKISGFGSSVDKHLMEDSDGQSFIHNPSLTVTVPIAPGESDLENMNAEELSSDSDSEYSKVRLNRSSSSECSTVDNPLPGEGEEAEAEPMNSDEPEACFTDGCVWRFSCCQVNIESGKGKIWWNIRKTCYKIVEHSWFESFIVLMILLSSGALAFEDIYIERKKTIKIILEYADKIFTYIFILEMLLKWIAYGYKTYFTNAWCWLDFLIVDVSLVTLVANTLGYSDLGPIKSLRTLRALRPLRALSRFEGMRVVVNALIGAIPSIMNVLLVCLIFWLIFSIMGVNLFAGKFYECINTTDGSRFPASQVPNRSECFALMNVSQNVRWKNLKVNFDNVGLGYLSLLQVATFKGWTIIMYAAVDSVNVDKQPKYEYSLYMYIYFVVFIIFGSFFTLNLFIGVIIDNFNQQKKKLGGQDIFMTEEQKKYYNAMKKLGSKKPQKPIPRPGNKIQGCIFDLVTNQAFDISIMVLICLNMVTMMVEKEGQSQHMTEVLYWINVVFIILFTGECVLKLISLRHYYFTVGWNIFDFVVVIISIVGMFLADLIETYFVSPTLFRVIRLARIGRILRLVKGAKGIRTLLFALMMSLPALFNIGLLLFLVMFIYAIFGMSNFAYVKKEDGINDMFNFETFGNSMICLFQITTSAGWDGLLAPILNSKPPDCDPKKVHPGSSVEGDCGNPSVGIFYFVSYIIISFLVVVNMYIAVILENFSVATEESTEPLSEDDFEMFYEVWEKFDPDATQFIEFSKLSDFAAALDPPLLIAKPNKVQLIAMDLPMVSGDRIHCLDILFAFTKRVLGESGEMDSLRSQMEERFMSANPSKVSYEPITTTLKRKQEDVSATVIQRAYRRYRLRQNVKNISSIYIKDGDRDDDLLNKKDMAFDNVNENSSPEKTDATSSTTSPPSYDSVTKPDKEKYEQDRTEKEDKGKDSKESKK
Chain of Nav 1.5 (Q14524 whole entry): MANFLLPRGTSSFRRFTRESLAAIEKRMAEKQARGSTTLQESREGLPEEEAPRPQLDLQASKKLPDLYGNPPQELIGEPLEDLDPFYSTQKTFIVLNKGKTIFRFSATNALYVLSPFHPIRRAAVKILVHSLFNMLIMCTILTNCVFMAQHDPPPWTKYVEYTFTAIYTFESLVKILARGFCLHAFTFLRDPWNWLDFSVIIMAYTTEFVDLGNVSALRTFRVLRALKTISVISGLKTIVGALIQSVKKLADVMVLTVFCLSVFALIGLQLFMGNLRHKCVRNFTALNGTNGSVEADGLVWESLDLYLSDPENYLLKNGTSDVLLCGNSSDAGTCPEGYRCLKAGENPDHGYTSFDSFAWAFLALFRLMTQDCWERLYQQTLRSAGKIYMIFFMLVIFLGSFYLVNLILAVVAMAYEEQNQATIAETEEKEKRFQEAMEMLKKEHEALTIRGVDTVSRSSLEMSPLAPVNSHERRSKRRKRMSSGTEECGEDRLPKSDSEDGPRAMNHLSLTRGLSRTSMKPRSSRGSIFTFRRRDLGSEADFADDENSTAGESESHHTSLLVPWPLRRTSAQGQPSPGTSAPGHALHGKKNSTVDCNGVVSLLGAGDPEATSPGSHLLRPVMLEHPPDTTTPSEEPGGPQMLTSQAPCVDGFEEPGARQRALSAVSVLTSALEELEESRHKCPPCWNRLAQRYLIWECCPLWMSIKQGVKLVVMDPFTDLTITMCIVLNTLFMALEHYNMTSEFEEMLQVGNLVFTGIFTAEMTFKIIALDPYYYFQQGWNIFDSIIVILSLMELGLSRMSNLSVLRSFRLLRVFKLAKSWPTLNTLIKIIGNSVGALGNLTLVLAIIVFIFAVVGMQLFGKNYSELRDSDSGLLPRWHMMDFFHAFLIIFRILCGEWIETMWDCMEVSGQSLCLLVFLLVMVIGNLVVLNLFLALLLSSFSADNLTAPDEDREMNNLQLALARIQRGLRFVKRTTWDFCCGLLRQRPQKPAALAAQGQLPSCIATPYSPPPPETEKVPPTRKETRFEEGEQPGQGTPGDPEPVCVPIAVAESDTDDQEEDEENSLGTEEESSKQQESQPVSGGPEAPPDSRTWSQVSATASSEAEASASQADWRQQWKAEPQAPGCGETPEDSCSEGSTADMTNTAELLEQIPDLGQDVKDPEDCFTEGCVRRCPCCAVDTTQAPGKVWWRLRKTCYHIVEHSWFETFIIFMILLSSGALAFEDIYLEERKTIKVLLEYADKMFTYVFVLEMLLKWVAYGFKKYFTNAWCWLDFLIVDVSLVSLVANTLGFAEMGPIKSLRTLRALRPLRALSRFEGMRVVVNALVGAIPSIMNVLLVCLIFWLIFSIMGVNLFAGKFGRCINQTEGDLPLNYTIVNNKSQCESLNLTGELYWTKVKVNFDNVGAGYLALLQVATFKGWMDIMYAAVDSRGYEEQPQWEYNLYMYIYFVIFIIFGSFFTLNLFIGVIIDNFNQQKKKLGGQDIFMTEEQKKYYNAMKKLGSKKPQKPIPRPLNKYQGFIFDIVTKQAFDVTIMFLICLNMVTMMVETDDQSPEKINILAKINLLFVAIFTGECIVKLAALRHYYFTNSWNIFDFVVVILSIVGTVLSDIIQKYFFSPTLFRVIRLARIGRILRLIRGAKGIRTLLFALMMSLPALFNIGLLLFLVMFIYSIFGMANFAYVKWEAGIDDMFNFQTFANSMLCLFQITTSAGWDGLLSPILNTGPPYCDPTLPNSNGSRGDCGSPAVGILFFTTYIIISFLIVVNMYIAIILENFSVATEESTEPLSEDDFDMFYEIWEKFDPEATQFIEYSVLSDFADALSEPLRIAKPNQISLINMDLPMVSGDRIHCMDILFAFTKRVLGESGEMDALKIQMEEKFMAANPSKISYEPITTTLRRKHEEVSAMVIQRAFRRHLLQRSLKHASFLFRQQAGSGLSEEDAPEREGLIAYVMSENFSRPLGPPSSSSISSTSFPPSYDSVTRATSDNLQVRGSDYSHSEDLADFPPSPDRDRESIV
Description for Nav 1.5: as §1, §2, §3

With `COc1cc(C(F)(F)F)ccc1-c1cccc2c1CCN(S(=O)(=O)Nc1ncns1)C2` [Example 44, 5-(2-Methoxy-4-(trifluoromethyl)phenyl)-N-(1,2,4-thiadiazol-5-yl)-3,4-dihydroisoquinoline-2(1H)-sulfonamide], the IC50 was 135 nM at Nav 1.7 [1], 260 nM on Nav 1.7 [2] and over 10000 nM at Nav 1.5.

Regarding `COc1cc(C(F)(F)F)ccc1-c1nccc2c1CCN(S(=O)(=O)Nc1ncns1)C2` [Example 46, 5-(2-Methoxy-4-(trifluoromethyl)phenyl)-N-(1,2,4-thiadiazol-5-yl)-3,4-dihydro-2,6-naphthyridine-2(1H)-sulfonamide], the IC50 is 19 nM at Nav 1.7 [1], 940 nM at Nav 1.7 [2] and over 10000 nM on Nav 1.5.

On to `O=S(=O)(Nc1ncns1)N1CCc2c(cccc2-c2ccc(C(F)(F)F)cc2Br)C1` [Example 4, 5-(2-Bromo-4-(trifluoromethyl)phenyl)-N-(1,2,4-thiadiazol-5-yl)-3,4-dihydroisoquinoline-2(1H)-sulfonamide], for which the results for the IC50 against Nav 1.7 [1], against Nav 1.7 [2] and against Nav 1.5 were 527 nM, 560 nM and over 10000 nM, respectively.

Consider `Nc1cc(-c2cc(C(F)(F)F)ccc2-c2cccc3c2CCN(S(=O)(=O)Nc2ncns2)C3)ccn1` [Example 18, 5-(2-(2-Aminopyridin-4-yl)-4-(trifluoromethyl)phenyl)-N-(1,2,4-thiadiazol-5-yl)-3,4-dihydroisoquinoline-2(1H)-sulfonamide], for which the IC50 on Nav 1.7 [1] is 45.3 nM; against Nav 1.7 [2], 70 nM; on Nav 1.5 it was over 10000 nM.

Turning to `CN1CC=C(c2ccc(C(F)(F)F)cc2-c2cccc3c2CCN(S(=O)(=O)Nc2ncc(F)s2)C3)CC1` [Example 40, N-(5-Fluorothiazol-2-yl)-5-(2-(1-methyl-1,2,3,6-tetrahydropyridin-4-yl)-5-(trifluoromethyl)phenyl)-3,4-dihydroisoquinoline-2(1H)-sulfonamide], the IC50 at Nav 1.7 [1] was 2810 nM; on Nav 1.7 [2], 12100 nM; against Nav 1.5 it was over 10000 nM.

`O=S(=O)(Nc1ncns1)N1CCc2c(cccc2-c2ccc(C(F)(F)F)cc2-c2cncnc2)C1` [Example 23, 5-(2-(Pyrimidin-5-yl)-4-(trifluoromethyl)phenyl)-N-(1,2,4-thiadiazol-5-yl)-3,4-dihydroisoquinoline-2(1H)-sulfonamide]: the IC50 on Nav 1.7 [1] is 186 nM; against Nav 1.7 [2], 800 nM; against Nav 1.5, over 10000 nM.

`CN1CC=C(c2cc(C(F)(F)F)ccc2-c2cccc3c2CCN(S(=O)(=O)Nc2ncc(F)s2)C3)CC1` [Example 39, N-(5-Fluorothiazol-2-yl)-5-(2-(1-methyl-1,2,3,6-tetrahydropyridin-4-yl)-4-(trifluoromethyl)phenyl)-3,4-dihydroisoquinoline-2(1H)-sulfonamide]: the results for the IC50 against Nav 1.7 [1], on Nav 1.7 [2] and at Nav 1.5 were 240 nM, 1170 nM and over 10000 nM, respectively.

Turning to `O=S(=O)(Nc1ncns1)N1CCc2c(cccc2-c2ccc(C(F)(F)F)cc2-c2ccncc2)C1` [Example 2, 5-(2-(Pyridin-4-yl)-4-(trifluoromethyl)phenyl)-N-(1,2,4-thiadiazol-5-yl)-3,4-dihydroisoquinoline-2(1H)-sulfonamide], the 50% inhibitory concentration (IC50) at Nav 1.7 [1] was 217 nM; on Nav 1.7 [2] it was 640 nM; at Nav 1.5, over 10000 nM.

As for `O=S(=O)(Nc1ncns1)N1CCc2c(cccc2-c2ccc(C(F)(F)F)cc2-n2ccnc2)C1` [Example 32, 5-(2-(1H-Imidazol-1-yl)-4-(trifluoromethyl)phenyl)-N-(1,2,4-thiadiazol-5-yl)-3,4-dihydroisoquinoline-2(1H)-sulfonamide], the 50% inhibitory concentration (IC50) on Nav 1.7 [1] amounted to 25.8 nM; on Nav 1.7 [2], 220 nM; against Nav 1.5, 6680 nM.

Consider `O=S(=O)(Nc1ncns1)N1CCc2c(cccc2-c2ccc(C(F)(F)F)cc2)C1` [Example 7, N-(1,2,4-Thiadiazol-5-yl)-5-(4-(trifluoromethyl)phenyl)-3,4-dihydroisoquinoline-2(1H)-sulfonamide], for which the IC50 was 1640 nM against Nav 1.7 [1], 5800 nM against Nav 1.7 [2] and over 10000 nM on Nav 1.5.

Consider `COc1cc(C2CC2)ccc1-c1nccc2c1CCN(S(=O)(=O)Nc1ncns1)C2` [Example 47, 5-(4-Cyclopropyl-2-methoxyphenyl)-N-(1,2,4-thiadiazol-5-yl)-3,4-dihydro-2,6-naphthyridine-2(1H)-sulfonamide], for which the values for the concentration for half-maximal inhibition (IC50) against Nav 1.7 [1], at Nav 1.7 [2] and against Nav 1.5 were 59 nM, 560 nM and over 10000 nM, respectively.

For the molecule `O=S(=O)(Nc1ncc(F)s1)N1CCc2c(cccc2-c2ccc(C(F)(F)F)cc2C2=CCNCC2)C1` [Example 33, N-(5-Fluorothiazol-2-yl)-5-(2-(1,2,3,6-tetrahydropyridin-4-yl)-4-(trifluoromethyl)phenyl)-3,4-dihydroisoquinoline-2(1H)-sulfonamide hydrochloride], the half-inhibitory concentration (IC50) against Nav 1.7 [1] is 351 nM; at Nav 1.7 [2], 190 nM; at Nav 1.5 it was over 10000 nM.

Turning to `Cn1nccc1-c1cc(C(F)(F)F)ccc1-c1cccc2c1CCN(S(=O)(=O)Nc1nccs1)C2` [Example 3, 5-(2-(1-methyl-1H-pyrazol-5-yl)-4-(trifluoromethyl)phenyl)-N-(thiazol-2-yl)-3,4-dihydroisoquinoline-2(1H)-sulfonamide], the IC50 at Nav 1.7 [1] was 414 nM; against Nav 1.7 [2], 2010 nM; against Nav 1.5 it was over 10000 nM.

`COc1ccc(OC)c(-c2cccc3c2CCN(S(=O)(=O)Nc2ncns2)C3)c1` [Example 27, 5-(2,5-Dimethoxyphenyl)-N-(1,2,4-thiadiazol-5-yl)-3,4-dihydroisoquinoline-2(1H)-sulfonamide]: the IC50 was 125 nM on Nav 1.7 [1], 670 nM against Nav 1.7 [2] and over 10000 nM against Nav 1.5.

In the case of `Cn1nccc1-c1cc(C(F)(F)F)ccc1-c1cccc2c1CCN(S(=O)(=O)Nc1ncccn1)C2` [Example 49, 5-(2-(1-Methyl-1H-pyrazol-5-yl)-4-(trifluoromethyl)phenyl)-N-(pyrimidin-2-yl)-3,4-dihydroisoquinoline-2(1H)-sulfonamide], the values for the 50% inhibitory concentration (IC50) against Nav 1.7 [1], on Nav 1.7 [2] and on Nav 1.5 were 12700 nM, 14600 nM and over 10000 nM, respectively.

With `COc1cc(C(F)(F)F)ccc1-c1cccc2c1C(C)CN(S(=O)(=O)Nc1ncns1)C2` (racemic) [Example 48, 5-(2-Methoxy-4-(trifluoromethyl)phenyl)-4-methyl-N-(1,2,4-thiadiazol-5-yl)-3,4-dihydroisoquinoline-2(1H)-sulfonamide], the IC50 turned out to be 4100 nM at Nav 1.7 [1], 6110 nM against Nav 1.7 [2] and 7260 nM on Nav 1.5.

As for `COc1ccc(F)cc1-c1cccc2c1CCN(S(=O)(=O)Nc1ncns1)C2` [Example 29, 5-(5-Fluoro-2-methoxyphenyl)-N-(1,2,4-thiadiazol-5-yl)-3,4-dihydroisoquinoline-2(1H)-sulfonamide], the IC50 against Nav 1.7 [1] was 62.8 nM; at Nav 1.7 [2] it was 370 nM; against Nav 1.5 it was over 10000 nM.

Regarding `COc1cc(F)ccc1-c1cccc2c1CCN(S(=O)(=O)Nc1ncns1)C2` [Example 30, 5-(4-Fluoro-2-methoxyphenyl)-N-(1,2,4-thiadiazol-5-yl)-3,4-dihydroisoquinoline-2(1H)-sulfonamide], the half-inhibitory concentration (IC50) on Nav 1.7 [1] is 137 nM; against Nav 1.7 [2], 560 nM; against Nav 1.5 it was over 10000 nM.

For `CN1CC=C(c2cc(C(F)(F)F)ccc2-c2cccc3c2CCN(S(=O)(=O)Nc2ncns2)C3)CC1` [Example 15, 5-(2-(1-Methyl-1,2,3,6-tetrahydropyridin-4-yl)-4-(trifluoromethyl)phenyl)-N-(1,2,4-thiadiazol-5-yl)-3,4-dihydroisoquinoline-2(1H)-sulfonamide], the results for the half-maximal inhibitory concentration (IC50) on Nav 1.7 [1], on Nav 1.7 [2] and against Nav 1.5 were 78.3 nM, 90 nM and over 10000 nM, respectively.

As to `COc1cc(C(F)(F)F)ccc1-c1ncnc2c1CCN(S(=O)(=O)Nc1nccs1)C2` [Example 59, 4-(2-methoxy-4-(trifluoromethyl)phenyl)-N-(thiazol-2-yl)-5,6-dihydropyrido[3,4-d]pyrimidine-7(8H)-sulfonamide], the concentration for half-maximal inhibition (IC50) against Nav 1.7 [1] is 87 nM; on Nav 1.7 [2], 1050 nM; at Nav 1.5, over 10000 nM.

As to `COc1ccc(-c2cccc3c2CCN(S(=O)(=O)Nc2ncns2)C3)c(OC)c1` [Example 26, 5-(2,4-Dimethoxyphenyl)-N-(1,2,4-thiadiazol-5-yl)-3,4-dihydroisoquinoline-2(1H)-sulfonamide], the IC50 is 1510 nM against Nav 1.7 [1], 2200 nM on Nav 1.7 [2] and over 10000 nM against Nav 1.5.

`Cc1cncn1-c1cc(C(F)(F)F)ccc1-c1cccc2c1CCN(S(=O)(=O)Nc1ncc(F)s1)C2` [Example 43, N-(5-Fluorothiazol-2-yl)-5-(2-(5-methyl-1H-imidazol-1-yl)-4-(trifluoromethyl)phenyl)-3,4-dihydroisoquinoline-2(1H)-sulfonamide]: the IC50 against Nav 1.7 [1] is 171 nM; against Nav 1.7 [2], 1920 nM; against Nav 1.5, over 10000 nM.

As to `O=S(=O)(Nc1ncns1)N1CCc2c(cccc2-c2ccc(C(F)(F)F)cc2F)C1` [Example 8, 5-(2-Fluoro-4-(trifluoromethyl)phenyl)-N-(1,2,4-thiadiazol-5-yl)-3,4-dihydroisoquinoline-2(1H)-sulfonamide], the IC50 against Nav 1.7 [1] is 1840 nM; against Nav 1.7 [2], 3130 nM; at Nav 1.5, over 10000 nM.

Take `O=S(=O)(Nc1ncns1)N1CCc2c(cccc2-c2ccc(Cl)cc2)C1` [Example 10]: the 50% inhibitory concentration (IC50) on Nav 1.7 [1] is 5470 nM; at Nav 1.7 [2], 7460 nM; on Nav 1.5, over 10000 nM.
